Tests used:
Assay in all cases: KiNativ profiling in H3255 cells
Assay type in all cases: cell-based, human
Wee1 = test system: T1, Wee1; settings: 2.5 µM; Lys2; YIHSMSLVHMDIKPSNIFISR
T1 construct: purchased ActivX Biosciences (KiNativ)
Procedure, shortened: (§1)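 Kinase occupancy was assessed by KiNativ after intact H3255 cells were exposed to ZNL-0056 at 2.5 μM for two hours, with DMSO as the vehicle condition.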

CK1a = test system: T2, CK1a; settings: 2.5 µM; Lys2; DIKPDNFLMGIGR
T2 construct: purchased ActivX Biosciences (KiNativ)
Procedure, shortened: as §1

MAP2K1, MAP2K2 = settings: 2.5 µM
Procedure, shortened: as §1

PKD1, PKD2 = settings: 2.5 µM; Lys2; NIVHCDLKPENVLLASADPFPQVK
Procedure, shortened: as §1

CaMK2g = test system: T3, CaMK2g; settings: 2.5 µM; Lys1; TSTQEYAAKIINTK
T3 construct: purchased ActivX Biosciences (KiNativ)
Procedure, shortened: as §1

MAP3K2, MAP3K3 = settings: 2.5 µM; Lys2; DIKGANILR
Procedure, shortened: as §1

CRK7 = test system: T4, CRK7; settings: 2.5 µM; Lys2; DIKCSNILLNNSGQIK
T4 construct: purchased ActivX Biosciences (KiNativ)
Procedure, shortened: as §1

MAP3K2 = test system: T5, MAP3K2; settings: 2.5 µM; Lys1; ELAVKQVQFDPDSPETSKEVNALECEIQLLK
T5 construct: purchased ActivX Biosciences (KiNativ)
Procedure, shortened: as §1

MAP3K15, MAP3K5, MAP3K6 = settings: 2.5 µM; Lys1; IAIKEIPER
Procedure, shortened: as §1

TAK1 = test system: T6, TAK1; settings: 2.5 µM; Lys2; DLKPPNLLLVAGGTVLK
T6 construct: purchased ActivX Biosciences (KiNativ)
Procedure, shortened: as §1

ZAK = test system: T7, ZAK; settings: 2.5 µM; Lys1; WISQDKEVAVKK
T7 construct: purchased ActivX Biosciences (KiNativ)
Procedure, shortened: as §1

FYN, SRC, YES = settings: 2.5 µM; Activation Loop; QGAKFPIKWTAPEAALYGR
Procedure, shortened: as §1

CSK = test system: T8, CSK; settings: 2.5 µM
T8 construct: purchased ActivX Biosciences (KiNativ)
Procedure, shortened: as §1

AurB = test system: T9, AurB; settings: 2.5 µM; Lys1; SHFIVALKVLFK
T9 construct: purchased ActivX Biosciences (KiNativ)
Procedure, shortened: as §1

PI4KB = test system: T10, PI4KB; settings: 2.5 µM, ATP
T10 construct: purchased ActivX Biosciences (KiNativ)
Procedure, shortened: as §1

PI4K2B = test system: T11, PI4K2B; settings: 2.5 µM; ATP; SEEPYGQLNPKWTK
T11 construct: purchased ActivX Biosciences (KiNativ)
Procedure, shortened: as §1

SIK = test system: T12, SIK; settings: 2.5 µM; Lys1; TQVAIKIIDK
T12 construct: purchased ActivX Biosciences (KiNativ)
Procedure, shortened: as §1

EphA2 = test system: T13, EphA2; settings: 2.5 µM; Activation Loop; VLEDDPEATYTTSGGKIPIR
T13 construct: purchased ActivX Biosciences (KiNativ)
Procedure, shortened: as §1

PKCi = test system: T14, PKCi; settings: 2.5 µM
T14 construct: purchased ActivX Biosciences (KiNativ)
Procedure, shortened: as §1

EphB2 = test system: T15, EphB2; settings: 2.5 µM; Activation Loop; FLEDDTSDPTYTSALGGKIPIR
T15 construct: purchased ActivX Biosciences (KiNativ)
Procedure, shortened: as §1

MELK = test system: T16, MELK; settings: 2.5 µM; Lys2; DLKPENLLFDEYHK
T16 construct: purchased ActivX Biosciences (KiNativ)
Procedure, shortened: as §1

CDC2 = test system: T17, CDC2; settings: 2.5 µM
T17 construct: purchased ActivX Biosciences (KiNativ)
Procedure, shortened: as §1

CDK4 = test system: T18, CDK4; settings: 2.5 µM; Lys2; DLKPENILVTSGGTVK
T18 construct: purchased ActivX Biosciences (KiNativ)
Procedure, shortened: as §1

MAP2K1 = test system: T19, MAP2K1; settings: 2.5 µM; Lys2; IMHRDVKPSNILVNSR
T19 construct: purchased ActivX Biosciences (KiNativ)
Procedure, shortened: as §1

AurA = test system: T20, AurA; settings: 2.5 µM
T20 construct: purchased ActivX Biosciences (KiNativ)
Procedure, shortened: as §1

PCTAIRE1 = test system: T21, PCTAIRE1; settings: 2.5 µM; Lys1; SKLTDNLVALKEIR
T21 construct: purchased ActivX Biosciences (KiNativ)
Description: (§2) Cellular target engagement assays […]
(§3) H3255 cells were plated with 6.5x10^6 per condition in fresh media in 15 cm plates and treated the 80% confluency for 2 hours with DMSO or 2.5 μM of ZNL-0056. To harvest cells, plates were washed 3 times with cold PBS, then collected by scraping into 4 mL of cold PBS containing protease and phosphatase inhibitors. Cells were pelleted by centrifugation at 1350 g at 4 ℃ for 5 minutes and immediately frozen in liquid nitrogen. The frozen samples were sent to ActivX Biosciences (La Jolla, CA) for the remainder of the KiNativ profiling experiment4. […]

SGK3 = test system: T22, SGK3; settings: 2.5 µM; Lys1; FYAVKVLQK
T22 construct: purchased ActivX Biosciences (KiNativ)
Description: as §2, §3

ATR = test system: T23, ATR; settings: 2.5 µM; ATP; FYIMMCKPK
T23 construct: purchased ActivX Biosciences (KiNativ)
Description: as §2, §3

RSK1 domain1 = test system: T24, RSK1 domain1; settings: 2.5 µM
T24 construct: RSK1 domain1; purchased ActivX Biosciences (KiNativ)
Description: as §2, §3

CLK1 = test system: T25, CLK1; settings: 2.5 µM; Lys2; LTHTDLKPENILFVQSDYTEAYNPK
T25 construct: purchased ActivX Biosciences (KiNativ)
Description: as §2, §3

SRPK1, SRPK2 = settings: 2.5 µM; Lys1; FVAMKVVK
Description: as §2, §3

CDK10 = test system: T26, CDK10; settings: 2.5 µM; Lys2; DLKVSNLLMTDK
T26 construct: purchased ActivX Biosciences (KiNativ)
Description: as §2, §3

[1] = Activation Loop, VSDFGLTKEASSTQDTGKLPVK
[2] = Lys1, VAVKCIKNDATAQAFLAEASVMTQLR
[3] = Protein Kinase Domain, KPLFHGDSEIDQLFR
[4] = Activation Loop, LTDFGLSKEAIDHEKK

C=CC(=O)Nc1cc(Nc2nccc(-c3cn(C)c4ccccc34)n2)c(OC)cc1N(C)CCN(C)C [Osimertinib, osimertinib, reference compound]
Inhibition (Wee1): 6.4%
Inhibition (CK1a): 12.6%
Inhibition (MAP2K1, MAP2K2; Lys1, KLIHLEIKPAIR): -64.7%
Inhibition (MAP2K1, MAP2K2; Lys2, DVKPSNILVNSR): -10.5%
Inhibition (PKD1, PKD2): -8.5%
Inhibition (CaMK2g): -34.8%
Inhibition (MAP3K2, MAP3K3): -6.6%
Inhibition (CRK7): 31.9%
Inhibition (MAP3K2): -20.3%
Inhibition (MAP3K15, MAP3K5, MAP3K6): -10.0%
Inhibition (TAK1): -9.8%
Inhibition (ZAK): -16.3%
Inhibition (FYN, SRC, YES): 7.8%
Inhibition (CSK; [1]): -3.3%
Inhibition (CSK; Lys1, VAVKCIK): -17.2%
Inhibition (CSK; [2]): 16.1%
Inhibition (AurB): 9.9%
Inhibition (PI4KB; LLSVIVKCGDDLRQELLAFQVLK): -20.5%
Inhibition (PI4KB; VPHTQAVVLNSKDK): 21.1%
Inhibition (PI4K2B): 26.7%
Inhibition (SIK): 48.0%
Inhibition (EphA2): 18.1%
Inhibition (PKCi; Lys1, IYAMKVVK): 5.6%
Inhibition (PKCi; Lys2, DLKLDNVLLDSEGHIK): -27.3%
Inhibition (EphB2): 1.1%
Inhibition (MELK): -15.3%
Inhibition (CDC2; Lys1, TTGQVVAMKK): -1.3%
Inhibition (CDC2; Lys2, DLKPQNLLIDDK): 29.6%
Inhibition (CDC2; [3]): -18.5%
Inhibition (CDK4): -1.3%
Inhibition (MAP2K1): -20.8%
Inhibition (AurA; Lys1, FILALKVLFK): -3.3%
Inhibition (AurA; Lys2, DIKPENLLLGSAGELK): 2.6%
Inhibition (PCTAIRE1): -20.8%
Inhibition (SGK3): 2.9%
Inhibition (ATR): -16.2%
Inhibition (RSK1 domain1; [4]): -14.9%
Inhibition (RSK1 domain1; Lys1, KVTRPDSGHLYAMKVLK): -11.7%
Inhibition (CLK1): 21.2%
Inhibition (SRPK1, SRPK2): 21.8%
Inhibition (CDK10): 40.2%

C=CC(=O)Nc1cc(C(=O)Nc2nc3cccc(C)c3n2[C@@H]2CCCCN(C(=O)C=C)C2)cs1 [ZNL-0056]
Inhibition (Wee1): 13.4%
Inhibition (CK1a): 10.2%
Inhibition (MAP2K1, MAP2K2; Lys1, KLIHLEIKPAIR): 9.8%
Inhibition (MAP2K1, MAP2K2; Lys2, DVKPSNILVNSR): -6.7%
Inhibition (PKD1, PKD2): 7.5%
Inhibition (CaMK2g): -27.3%
Inhibition (MAP3K2, MAP3K3): -6.0%
Inhibition (CRK7): -9.2%
Inhibition (MAP3K2): 12.2%
Inhibition (MAP3K15, MAP3K5, MAP3K6): -7.9%
Inhibition (TAK1): 10.2%
Inhibition (ZAK): 12.1%
Inhibition (FYN, SRC, YES): 1.6%
Inhibition (CSK; [1]): -1.9%
Inhibition (CSK; Lys1, VAVKCIK): -0.8%
Inhibition (CSK; [2]): 6.7%
Inhibition (AurB): 14.4%
Inhibition (PI4KB; LLSVIVKCGDDLRQELLAFQVLK): -9.0%
Inhibition (PI4KB; VPHTQAVVLNSKDK): -25.9%
Inhibition (PI4K2B): -26.7%
Inhibition (SIK): 28.2%
Inhibition (EphA2): 13.2%
Inhibition (PKCi; Lys1, IYAMKVVK): 2.3%
Inhibition (PKCi; Lys2, DLKLDNVLLDSEGHIK): 15.4%
Inhibition (EphB2): -8.5%
Inhibition (MELK): 23.0%
Inhibition (CDC2; Lys1, TTGQVVAMKK): -18.6%
Inhibition (CDC2; Lys2, DLKPQNLLIDDK): -1.3%
Inhibition (CDC2; [3]): 2.3%
Inhibition (CDK4): -13.0%
Inhibition (MAP2K1): -10.3%
Inhibition (AurA; Lys1, FILALKVLFK): -0.0337%
Inhibition (AurA; Lys2, DIKPENLLLGSAGELK): -15.7%
Inhibition (PCTAIRE1): -1.5%
Inhibition (SGK3): 10.1%
Inhibition (ATR): 18.0%
Inhibition (RSK1 domain1; [4]): 5.8%
Inhibition (RSK1 domain1; Lys1, KVTRPDSGHLYAMKVLK): -35.1%
Inhibition (CLK1): -15.4%
Inhibition (SRPK1, SRPK2): -8.1%
Inhibition (CDK10): 23.6%

— article PMC11212140, “Molecular Bidents with Two Electrophilic Warheads as a New Pharmacological Modality” (ACS Central Science, 2024)
